Reference: US20020026053A1, “Novel 3-(substituted) -2- indolinones compounds and use thereof as inhibitors of protein kinase activity” (priority 1997, published 2002)

system: FLK-1 receptor; assay: FLK-1 Assay (cellular/catalytic ELISA, VEGF-stimulated phosphotyrosine); format: cell-based; design: concentration or dose not given beside the values; details: protocol P.110
In short: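 Receptor phosphotyrosine ELISA: Flk-1-expressing NIH3T3 C7#3 cells, starved overnight in 0.1% FBS medium, received compound (1:200 final dilution, 0.5% DMSO) for 2 h at 37 °C, then VEGF. Anti-FLK-1-captured receptor was probed with anti-phosphotyrosine UB40 and peroxidase/ABTS read-out, relative to cells without compound.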

SMILES | Flk Kinase % Inhibition (P.110)
Cc1ccc(C)c(C=C2C(=O)Nc3c(Br)cc(Br)c(C)c32)c1 [10737/H07] | 15.5%
Cc1c(Br)cc(Br)c2c1C(=Cc1ccc3ccccc3c1)C(=O)N2 [10737/H08] | 10.0%
Cc1c(Br)cc(Br)c2c1C(=Cc1ccc(Oc3ccccc3)cc1)C(=O)N2 [10737/H09] | 5.5%
Cc1c(Br)cc(Br)c2c1C(=Cc1cccc(Oc3ccc(C(C)(C)C)cc3)c1)C(=O)N2 [10737/H10] | 10.5%
Cc1c(Br)cc(Br)c2c1C(=Cc1cccc(Oc3cccc(C(F)(F)F)c3)c1)C(=O)N2 [10737/H11] | 14.5%
Cc1ccc(Oc2cccc(C=C3C(=O)Nc4c(Br)cc(Br)cc43)c2)cc1 [10738/A02] | −14.2%
O=C1Nc2c(Br)cc(Br)cc2C1=Cc1cccc(Oc2ccc(Cl)c(Cl)c2)c1 [10738/A03] | 12.8%
COc1ccc(C=C2C(=O)Nc3c(Br)cc(Br)cc32)cc1O [10738/A04] | −16.2%
O=C1Nc2c(Br)cc(Br)cc2C1=Cc1cc(O)ccc1[N+](=O)[O-] [10738/A05] | −24.5%
O=C1Nc2c(Br)cc(Br)cc2C1=Cc1cccc(O)c1O [10738/A06] | 77.3%
O=C1Nc2c(Br)cc(Br)cc2C1=Cc1cc(O)cc(O)c1 [10738/A07] | −22.1%
O=C1Nc2c(Br)cc(Br)cc2C1=Cc1ccc(Cl)c(Cl)c1 [10738/A08] | −9.3%
COc1ccccc1C=C1C(=O)Nc2c(Br)cc(Br)cc21 [10738/A09] | −9.8%
CC(C)c1ccc(C=C2C(=O)Nc3c(Br)cc(Br)cc32)cc1 [10738/A10] | −8.5%
CCCOc1ccc(C=C2C(=O)Nc3c(Br)cc(Br)cc32)cc1 [10738/A11] | −7.5%
Cc1ccc(Oc2cccc(C=C3C(=O)Nc4ccc(I)cc43)c2)cc1 [10738/B02] | −8.5%
O=C1Nc2ccc(I)cc2C1=Cc1cccc(Oc2ccc(Cl)c(Cl)c2)c1 [10738/B03] | −1.2%
COc1ccc(C=C2C(=O)Nc3ccc(I)cc32)cc1O [10738/B04] | 55.0%
O=C1Nc2ccc(I)cc2C1=Cc1cc(O)ccc1[N+](=O)[O-] [10738/B05] | −13.1%
O=C1Nc2ccc(I)cc2C1=Cc1cccc(O)c1O [10738/B06] | −44.1%
O=C1Nc2ccc(I)cc2C1=Cc1cc(O)cc(O)c1 [10738/B07] | −22.7%
O=C1Nc2ccc(I)cc2C1=Cc1ccc(Cl)c(Cl)c1 [10738/B08] | −0.7%
COc1ccccc1C=C1C(=O)Nc2ccc(I)cc21 [10738/B09] | −6.2%
CC(C)c1ccc(C=C2C(=O)Nc3ccc(I)cc32)cc1 [10738/B10] | 14.3%
CCCOc1ccc(C=C2C(=O)Nc3ccc(I)cc32)cc1 [10738/B11] | 8.8%
Cc1ccc(Oc2cccc(C=C3C(=O)Nc4ccc(Br)c(C)c43)c2)cc1 [10738/C02] | −0.1%

SMILES | Flk Kinase % Inhibition (P.110)
Cc1c(Br)ccc2c1C(=Cc1cccc(Oc3ccc(Cl)c(Cl)c3)c1)C(=O)N2 [10738/C03] | 28.0%
COc1ccc(C=C2C(=O)Nc3ccc(Br)c(C)c32)cc1O [10738/C04] | 84.2%
Cc1c(Br)ccc2c1C(=Cc1cc(O)ccc1[N+](=O)[O-])C(=O)N2 [10738/C05] | −4.4%
Cc1c(Br)ccc2c1C(=Cc1cccc(O)c1O)C(=O)N2 [10738/C06] | −68.1%
Cc1c(Br)ccc2c1C(=Cc1cc(O)cc(O)c1)C(=O)N2 [10738/C07] | −7.4%
Cc1c(Br)ccc2c1C(=Cc1ccc(Cl)c(Cl)c1)C(=O)N2 [10738/C08] | −7.4%
COc1ccccc1C=C1C(=O)Nc2ccc(Br)c(C)c21 [10738/C09] | 4.5%
Cc1c(Br)ccc2c1C(=Cc1ccc(C(C)C)cc1)C(=O)N2 [10738/C10] | −2.5%
CCCOc1ccc(C=C2C(=O)Nc3ccc(Br)c(C)c32)cc1 [10738/C11] | 8.4%
CNS(=O)(=O)c1ccc2c(c1)C(=Cc1cccc(Oc3ccc(C)cc3)c1)C(=O)N2 [10738/D02] | 2.8%
CNS(=O)(=O)c1ccc2c(c1)C(=Cc1cccc(Oc3ccc(Cl)c(Cl)c3)c1)C(=O)N2 [10738/D03] | 13.6%
CNS(=O)(=O)c1ccc2c(c1)C(=Cc1ccc(OC)c(O)c1)C(=O)N2 [10738/D04] | −13.1%
CNS(=O)(=O)c1ccc2c(c1)C(=Cc1cc(O)ccc1[N+](=O)[O-])C(=O)N2 [10738/D05] | −12.5%
CNS(=O)(=O)c1ccc2c(c1)C(=Cc1cccc(O)c1O)C(=O)N2 [10738/D06] | −26.7%
CNS(=O)(=O)c1ccc2c(c1)C(=Cc1cc(O)cc(O)c1)C(=O)N2 [10738/D07] | 10.3%
CNS(=O)(=O)c1ccc2c(c1)C(=Cc1ccc(Cl)c(Cl)c1)C(=O)N2 [10738/D08] | 11.9%
CNS(=O)(=O)c1ccc2c(c1)C(=Cc1ccccc1OC)C(=O)N2 [10738/D09] | 9.4%
CNS(=O)(=O)c1ccc2c(c1)C(=Cc1ccc(C(C)C)cc1)C(=O)N2 [10738/D10] | 15.4%
CCCOc1ccc(C=C2C(=O)Nc3ccc(S(=O)(=O)NC)cc32)cc1 [10738/D11] | 10.4%
Cc1ccc(Oc2cccc(C=C3C(=O)Nc4ccc(S(=O)(=O)Nc5ccc(C(F)(F)F)cc5)cc43)c2)cc1 [10738/E02] | 3.6%
O=C1Nc2ccc(S(=O)(=O)Nc3ccc(C(F)(F)F)cc3)cc2C1=Cc1cccc(Oc2ccc(Cl)c(Cl)c2)c1 [10738/E03] | 7.8%
COc1ccc(C=C2C(=O)Nc3ccc(S(=O)(=O)Nc4ccc(C(F)(F)F)cc4)cc32)cc1O [10738/E04] | −11.5%
O=C1Nc2ccc(S(=O)(=O)Nc3ccc(C(F)(F)F)cc3)cc2C1=Cc1cc(O)ccc1[N+](=O)[O-] [10738/E05] | −4.8%
O=C1Nc2ccc(S(=O)(=O)Nc3ccc(C(F)(F)F)cc3)cc2C1=Cc1cccc(O)c1O [10738/E06] | 10.1%
O=C1Nc2ccc(S(=O)(=O)Nc3ccc(C(F)(F)F)cc3)cc2C1=Cc1cc(O)cc(O)c1 [10738/E07] | 43.4%
O=C1Nc2ccc(S(=O)(=O)Nc3ccc(C(F)(F)F)cc3)cc2C1=Cc1ccc(Cl)c(Cl)c1 [10738/E08] | 12.8%

SMILES | Flk Kinase % Inhibition (P.110)
COc1ccccc1C=C1C(=O)Nc2ccc(S(=O)(=O)Nc3ccc(C(F)(F)F)cc3)cc21 [10738/E09] | 21.2%
CC(C)c1ccc(C=C2C(=O)Nc3ccc(S(=O)(=O)Nc4ccc(C(F)(F)F)cc4)cc32)cc1 [10738/E10] | 5.1%
CCCOc1ccc(C=C2C(=O)Nc3ccc(S(=O)(=O)Nc4ccc(C(F)(F)F)cc4)cc32)cc1 [10738/E11] | 10.2%
Cc1ccc(Oc2cccc(C=C3C(=O)Nc4ccc(S(=O)(=O)N5CCOCC5)cc43)c2)cc1 [10738/F02] | 15.0%
O=C1Nc2ccc(S(=O)(=O)N3CCOCC3)cc2C1=Cc1cccc(Oc2ccc(Cl)c(Cl)c2)c1 [10738/F03] | 9.0%
COc1ccc(C=C2C(=O)Nc3ccc(S(=O)(=O)N4CCOCC4)cc32)cc1O [10738/F04] | −32.3%
O=C1Nc2ccc(S(=O)(=O)N3CCOCC3)cc2C1=Cc1cc(O)ccc1[N+](=O)[O-] [10738/F05] | 3.3%
O=C1Nc2ccc(S(=O)(=O)N3CCOCC3)cc2C1=Cc1cccc(O)c1O [10738/F06] | −12.6%
O=C1Nc2ccc(S(=O)(=O)N3CCOCC3)cc2C1=Cc1cc(O)cc(O)c1 [10738/F07] | 6.4%
O=C1Nc2ccc(S(=O)(=O)N3CCOCC3)cc2C1=Cc1ccc(Cl)c(Cl)c1 [10738/F08] | 16.8%
COc1ccccc1C=C1C(=O)Nc2ccc(S(=O)(=O)N3CCOCC3)cc21 [10738/F09] | 1.7%
CC(C)c1ccc(C=C2C(=O)Nc3ccc(S(=O)(=O)N4CCOCC4)cc32)cc1 [10738/F10] | 9.5%
CCCOc1ccc(C=C2C(=O)Nc3ccc(S(=O)(=O)N4CCOCC4)cc32)cc1 [10738/F11] | 15.8%
Cc1ccc(Oc2cccc(C=C3C(=O)Nc4ccc(CCCl)cc43)c2)cc1 [10738/G02] | −10.5%
O=C1Nc2ccc(CCCl)cc2C1=Cc1cccc(Oc2ccc(Cl)c(Cl)c2)c1 [10738/G03] | −4.1%
COc1ccc(C=C2C(=O)Nc3ccc(CCCl)cc32)cc1O [10738/G04] | −57.2%
O=C1Nc2ccc(CCCl)cc2C1=Cc1cc(O)ccc1[N+](=O)[O-] [10738/G05] | 4.0%
O=C1Nc2ccc(CCCl)cc2C1=Cc1cccc(O)c1O [10738/G06] | −52.4%
O=C1Nc2ccc(CCCl)cc2C1=Cc1cc(O)cc(O)c1 [10738/G07] | −19.3%
O=C1Nc2ccc(CCCl)cc2C1=Cc1ccc(Cl)c(Cl)c1 [10738/G08] | −15.2%
COc1ccccc1C=C1C(=O)Nc2ccc(CCCl)cc21 [10738/G09] | 4.1%
CC(C)c1ccc(C=C2C(=O)Nc3ccc(CCCl)cc32)cc1 [10738/G10] | −17.0%
CCCOc1ccc(C=C2C(=O)Nc3ccc(CCCl)cc32)cc1 [10738/G11] | −8.1%
Cc1ccc(Oc2cccc(C=C3C(=O)Nc4c(Br)cc(Br)c(C)c43)c2)cc1 [10738/H02] | −14.6%
Cc1c(Br)cc(Br)c2c1C(=Cc1cccc(Oc3ccc(Cl)c(Cl)c3)c1)C(=O)N2 [10738/H03] | −6.2%
